A short description of one data set: physchem. Type of data set: physicochemical. To be noted: 25 °C, water. The text has this:
In UK Patent Specification 2130204 we describe certain purine derivatives which are characterised by the presence of a hydrogen atom in the 6- position of the purine nucleus, and which can be readily converted in vivo by the action of enzymes of the molybdo-flavo-protein type (especially xanthine oxidase/dehydrogenase or aldehyde oxidase) into the corresponding 6-hydroxy purine derivatives having antiviral activity. […] This improved water-solubility enables 6-deoxyacyclovir to be used in a greater variety of aqueous pharmaceutical formulations which require some solubilisation of the drug.

Data set [1] concerns the target T1, xanthine oxidase from bovine milk (Bos taurus, UniProt P80457).
T1 construct: xanthine oxidase from bovine milk; from tissue; host or cells: bovine milk
The data set can be described thus: oxidation by xanthine oxidase (enzyme studies). It counts as biochemical. To be noted: compared with the 9-unsubstituted purine (2-aminopurine). The source says: The discovery that the 6-hydrogen purines of formula (IA) referred to above can be readily converted into their corresponding 6-hydroxy analogues was surprising since in previous studies with xanthine oxidase from bovine milk (H.Lettre et al (1967) Biochem.Pharmacol., 16, 1747-1755; T.A. Krenitsky et al (1972) Arch. Biophys., 150, 585-599), it was shown that 9- substitution obliterates or greatly diminishes the rate at which a variety of purines are oxidised.

The term solubility denotes how much of the substance goes into solution per volume. A lower solubility goes with little dissolved substance.

Each structure is given as a SMILES string. ≈ marks a conversion by molar mass, not a printed value.

T1 sequence (P80457 whole entry): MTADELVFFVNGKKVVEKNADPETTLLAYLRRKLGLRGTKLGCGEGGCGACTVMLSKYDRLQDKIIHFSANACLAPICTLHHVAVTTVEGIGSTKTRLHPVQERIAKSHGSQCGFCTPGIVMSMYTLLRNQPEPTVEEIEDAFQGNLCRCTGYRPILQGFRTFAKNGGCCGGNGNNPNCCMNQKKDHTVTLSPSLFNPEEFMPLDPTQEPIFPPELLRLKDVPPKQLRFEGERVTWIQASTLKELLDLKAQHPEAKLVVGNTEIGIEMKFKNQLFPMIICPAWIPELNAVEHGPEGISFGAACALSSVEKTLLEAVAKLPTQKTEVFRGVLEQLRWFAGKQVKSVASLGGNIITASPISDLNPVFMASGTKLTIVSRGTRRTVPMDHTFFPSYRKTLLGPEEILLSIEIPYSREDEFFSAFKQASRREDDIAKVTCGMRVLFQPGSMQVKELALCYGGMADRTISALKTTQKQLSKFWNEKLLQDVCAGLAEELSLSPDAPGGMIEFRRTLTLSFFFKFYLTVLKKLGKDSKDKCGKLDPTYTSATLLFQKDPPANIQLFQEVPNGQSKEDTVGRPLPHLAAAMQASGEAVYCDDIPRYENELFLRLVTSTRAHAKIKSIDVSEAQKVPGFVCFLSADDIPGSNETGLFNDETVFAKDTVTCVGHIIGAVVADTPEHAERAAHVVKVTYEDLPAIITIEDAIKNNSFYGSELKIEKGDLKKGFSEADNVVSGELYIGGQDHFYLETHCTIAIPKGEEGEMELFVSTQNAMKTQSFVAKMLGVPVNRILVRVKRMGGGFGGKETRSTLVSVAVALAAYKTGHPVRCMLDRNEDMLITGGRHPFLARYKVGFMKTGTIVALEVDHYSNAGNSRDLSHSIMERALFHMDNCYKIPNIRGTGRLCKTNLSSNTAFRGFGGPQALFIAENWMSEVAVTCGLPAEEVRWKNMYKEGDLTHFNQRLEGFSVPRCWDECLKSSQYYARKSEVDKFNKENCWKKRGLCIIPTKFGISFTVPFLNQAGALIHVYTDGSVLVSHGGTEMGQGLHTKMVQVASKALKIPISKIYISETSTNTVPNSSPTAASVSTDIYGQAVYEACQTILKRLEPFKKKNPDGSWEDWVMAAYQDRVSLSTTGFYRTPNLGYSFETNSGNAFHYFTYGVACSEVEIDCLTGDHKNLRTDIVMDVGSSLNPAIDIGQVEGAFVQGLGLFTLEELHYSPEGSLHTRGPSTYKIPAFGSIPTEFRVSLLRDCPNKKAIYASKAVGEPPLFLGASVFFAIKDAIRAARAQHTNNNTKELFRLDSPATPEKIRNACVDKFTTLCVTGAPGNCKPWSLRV

The compound `Nc1nc2c(ncn2COCCO)c(=O)[nH]1` [acyclovir, 9-(2-hydroxyethoxymethyl)guanine] showed a solubility in the data set “physchem” of 1.23 mg/mL (≈ 5.46 mM).

`Nc1ncc2ncn(COCCO)c2n1` [6-deoxyacyclovir, 2-amino-9-(2-hydroxyethoxymethyl)purine]: the solubility in the data set “physchem” was 50 mg/mL (≈ 239 mM). Further, in data set [1], the “rate of oxidation by the enzyme” value was “at a faster rate than the 9-unsubstituted purine”.

The values above are taken from patent EP0158513A2, “Antiviral compounds” (THE WELLCOME FOUNDATION LIMITED, priority 1984, dated 1985).
